Test results taken from patent US5872107A, “Treatment of urogenital cancer with boron neutron capture therapy” (Emory University, priority 1997, dated 1999).

Legend:
[1] = Toxicity study: weight change and survival of normal Swiss mice; type: in vivo, Swiss female mice; conditions: 30 mg/kg/day i.p.
Description: A toxicity study was conducted on 6-week-old Swiss female mice treated with CDU and CFAU at 30 mg/kg/day. The compounds were prepared in sterile DMSO and injected intraperitoneally (0.1 mL). DMSO and water were used as controls, with the same injection volume as that used for the CDU and CFAU solutions. The dosing schedule used was once a day for 6 days, and the mice were weighed biweekly for 28 days. Results shown in Table 3 somewhat correlate with the cytotoxicity assays in vitro.

[2] = typical nucleoside analogues; cited from earlier work

Molecule	weight loss after 1 week (in words) ([1]; CFAU and CDU compared)	relative toxicity as monitored by survival outcome (in words) ([1]; CFAU versus CDU)	day of death of mouse ([1]; one mouse of five)	weight recovery at 4 weeks (in words) ([1]; surviving animals)	% of weight gained or lost on week 1 ([1]; week 1, once a day for 6 days)	% of weight gained or lost on week 2 ([1]; week 2, once a day for 6 days)	% of weight gained or lost on week 3 ([1]; week 3, once a day for 6 days)	% of weight gained or lost on week 4 ([1]; week 4, once a day for 6 days)	survival at week 4, alive/total ([1]; week 4, once a day for 6 days)	survival at week 4 (%) ([1]; week 4, once a day for 6 days, 40320 min)	reabsorption by the renal tubule (in words) [2]
5-o-carboranyl-1-(2-deoxy-2-fluoro-β-D-arabinofuranosyl)uracil [CFAU]	comparable weight loss after 1 week	more toxic than CDU	7 days	all the surviving animals recovered their weight loss to control untreated levels	-6.8%	-0.4%	5.0%	9.6%	4/5	80%	
Cc1cn([C@H]2C[C@H](N=[N+]=[N-])[C@@H](CO)O2)c(=O)[nH]c1=O [AZT, 3'-azido-3'-deoxythymidine]											not reabsorbed appreciably by the renal tubule
[N-]=[N+]=N[C@H]1C[C@H](n2ccc(=O)[nH]c2=O)O[C@@H]1CO [AZddU, 3'-azido-2',3'-dideoxyuridine]											not reabsorbed appreciably by the renal tubule
